Results from ChEMBL document CHEMBL5356971, “Optimization of the Antibacterial Spectrum and the Developability Profile of the Novel-Class Natural Product Corramycin” (J Med Chem, 2023).
Converted amounts (≈) assume the structure as drawn.

Legend:
Assay type in all cases: functional
Details in all cases: time 20-22 hrs
[1] = system: Pseudomonas aeruginosa; experiment: Antibacterial activity against multidrug-resistant Pseudomonas aeruginosa PAO1 assessed as bacterial growth inhibition incubated for 20 to 22 hrs by CLSI based analysis
[2] = system: Escherichia coli; experiment: Antibacterial activity against multidrug-resistant Escherichia coli BAA2469 assessed as bacterial growth inhibition incubated for 20 to 22 hrs by CLSI based analysis
[3] = system: Proteus mirabilis; experiment: Antibacterial activity against multidrug-resistant Proteus mirabilis ATCC 7002 assessed as bacterial growth inhibition incubated for 20 to 22 hrs by CLSI based analysis
[4] = system: Escherichia coli; experiment: Antibacterial activity against multidrug-resistant Escherichia coli MG1655 assessed as bacterial growth inhibition incubated for 20 to 22 hrs by CLSI based analysis
[5] = system: Klebsiella pneumoniae; experiment: Antibacterial activity against […] assessed as bacterial growth inhibition incubated for 20 to 22 hrs by CLSI based analysis
[6] = system: Enterobacter cloacae; experiment: Antibacterial activity against multidrug-resistant Enterobacter cloacae BAA2341 assessed as bacterial growth inhibition incubated for 20 to 22 hrs by CLSI based analysis
[7] = system: Escherichia coli; experiment: Antibacterial activity against multidrug-resistant Escherichia coli UT189 assessed as bacterial growth inhibition incubated for 20 to 22 hrs by CLSI based analysis
[8] = system: Klebsiella pneumoniae; experiment: Antibacterial activity against multidrug-resistant Klebsiella pneumoniae R1525 assessed as bacterial growth inhibition incubated for 20 to 22 hrs by CLSI based analysis
[9] = system: Pseudomonas aeruginosa; experiment: Antibacterial activity against multidrug-resistant Pseudomonas aeruginosa PAO750 assessed as bacterial growth inhibition incubated for 20 to 22 hrs by CLSI based analysis
[10] = system: Acinetobacter baumannii; experiment: Antibacterial activity against multidrug-resistant Acinetobacter baumannii R831 assessed as bacterial growth inhibition incubated for 20 to 22 hrs by CLSI based analysis
[11] = system: Escherichia coli; experiment: Antibacterial activity against […] assessed as bacterial growth inhibition incubated for 20 to 22 hrs by CLSI based analysis
[12] = system: Citrobacter freundii; experiment: Antibacterial activity against multidrug-resistant Citrobacter freundii ATCC 8090 assessed as bacterial growth inhibition incubated for 20 to 22 hrs by CLSI based analysis
[13] = system: Providencia stuartii; experiment: Antibacterial activity against multidrug-resistant Providencia stuartii ATCC 49809 assessed as bacterial growth inhibition incubated for 20 to 22 hrs by CLSI based analysis
[14] = system: Acinetobacter baumannii; experiment: Antibacterial activity against multidrug-resistant Acinetobacter baumannii R835 assessed as bacterial growth inhibition incubated for 20 to 22 hrs by CLSI based analysis
[15] = system: Klebsiella pneumoniae; experiment: Antibacterial activity against multidrug-resistant Klebsiella pneumoniae G199 assessed as bacterial growth inhibition incubated for 20 to 22 hrs by CLSI based analysis
[16] = system: Escherichia coli; experiment: Antibacterial activity against multidrug-resistant Escherichia coli MG1655 harboring tolC mutant assessed as bacterial growth inhibition incubated for 20 to 22 hrs by CLSI based analysis
[17] = system: Klebsiella pneumoniae; experiment: Antibacterial activity against multidrug-resistant Klebsiella pneumoniae BAA2473 assessed as bacterial growth inhibition incubated for 20 to 22 hrs by CLSI based analysis
[18] = system: Klebsiella pneumoniae; experiment: Antibacterial activity against multidrug-resistant Klebsiella pneumoniae BAA2146 assessed as bacterial growth inhibition incubated for 20 to 22 hrs by CLSI based analysis
[19] = system: Klebsiella pneumoniae; experiment: Antibacterial activity against multidrug-resistant Klebsiella pneumoniae B817 assessed as bacterial growth inhibition incubated for 20 to 22 hrs by CLSI based analysis
[20] = system: Escherichia coli; experiment: Antibacterial activity against multidrug-resistant Escherichia coli IR45 assessed as bacterial growth inhibition incubated for 20 to 22 hrs by CLSI based analysis

SMILES	MIC [1]	MIC [2]	MIC [3]	MIC [4]	MIC [5]	MIC [6]	MIC [7]	MIC [8]	MIC [9]	MIC [10]	MIC [11]	MIC [12]	MIC [13]	MIC [14]	MIC [15]	MIC [16]	MIC [17]	MIC [18]	MIC [19]	MIC [20]
C[C@@H](O)[C@H]1C(=O)N2C(C(=O)O)=C(SCCNC=N)C[C@H]12 [IMIPENEM ANHYDROUS]	2 µg/mL (≈ 6.68 µM)	> 2 µg/mL	1 µg/mL (≈ 3.34 µM)	≤ 0.015 µg/mL	16 µg/mL (≈ 53.4 µM)	> 64 µg/mL	≤ 0.25 µg/mL	> 64 µg/mL	1 µg/mL (≈ 3.34 µM)	> 64 µg/mL	0.25 µg/mL (≈ 0.835 µM)	1 µg/mL (≈ 3.34 µM)	< 0.125 µg/mL	> 1 µg/mL	16 µg/mL (≈ 53.4 µM)	≤ 0.015 µg/mL	1 µg/mL (≈ 3.34 µM)	> 16 µg/mL	–	–
C[C@@H](O)[C@H]1C(=O)N2C(C(=O)O)=C(S[C@@H]3CN[C@H](C(=O)N(C)C)C3)[C@H](C)[C@H]12 [MEROPENEM]	1 µg/mL (≈ 2.61 µM)	< 0.03 µg/mL	≤ 0.25 µg/mL	–	–	> 16 µg/mL	–	–	≤ 0.25 µg/mL	–	< 0.03 µg/mL	≤ 0.25 µg/mL	≤ 0.25 µg/mL	–	–	–	–	> 16 µg/mL	< 0.03 µg/mL	8 µg/mL (≈ 20.9 µM)
